Biological target: T1, human TLR9 (Homo sapiens, UniProt Q9NR96)
T1 sequence (Q9NR96 26-1032): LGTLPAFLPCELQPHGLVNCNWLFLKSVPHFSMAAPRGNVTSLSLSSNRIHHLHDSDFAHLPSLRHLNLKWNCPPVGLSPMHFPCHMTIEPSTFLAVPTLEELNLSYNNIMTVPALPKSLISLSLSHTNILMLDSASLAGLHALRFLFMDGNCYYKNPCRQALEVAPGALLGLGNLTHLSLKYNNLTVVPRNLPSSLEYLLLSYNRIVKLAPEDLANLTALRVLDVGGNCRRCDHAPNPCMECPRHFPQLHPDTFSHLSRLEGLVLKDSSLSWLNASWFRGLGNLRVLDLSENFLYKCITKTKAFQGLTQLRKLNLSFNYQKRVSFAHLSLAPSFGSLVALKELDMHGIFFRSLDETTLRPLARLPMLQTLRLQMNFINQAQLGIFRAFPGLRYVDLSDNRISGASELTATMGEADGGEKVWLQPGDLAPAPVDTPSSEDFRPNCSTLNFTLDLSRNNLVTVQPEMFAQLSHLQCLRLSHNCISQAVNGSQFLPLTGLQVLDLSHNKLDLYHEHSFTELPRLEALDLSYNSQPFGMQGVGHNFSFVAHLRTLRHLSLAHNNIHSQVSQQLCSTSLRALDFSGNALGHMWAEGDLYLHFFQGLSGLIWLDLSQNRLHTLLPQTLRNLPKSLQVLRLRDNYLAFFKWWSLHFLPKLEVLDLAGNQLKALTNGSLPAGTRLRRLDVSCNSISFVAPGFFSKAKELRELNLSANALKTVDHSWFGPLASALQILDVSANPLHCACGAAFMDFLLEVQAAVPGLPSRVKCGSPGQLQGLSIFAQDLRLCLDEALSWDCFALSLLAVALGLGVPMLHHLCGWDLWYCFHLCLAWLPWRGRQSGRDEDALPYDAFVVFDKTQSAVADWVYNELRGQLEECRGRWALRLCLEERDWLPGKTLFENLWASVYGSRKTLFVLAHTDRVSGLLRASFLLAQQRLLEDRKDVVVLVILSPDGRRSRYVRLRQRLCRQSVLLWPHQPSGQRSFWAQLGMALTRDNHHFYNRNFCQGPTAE
Test: HEK293-Blue-hTLR-9 cells assay
Format: cell-based
Conditions: HEK293-Blue-hTLR9 cells, SEAP reporter, ODN2006 stimulation, 20 hrs
Description: HEK293-Blue-hTLR-9 Cells Assay:
A stable HEK293-Blue-hTLR-9 cell line was purchased from InvivoGen (Cat. #: hkb-htlh9, San Diego, Calif., USA). These cells were originally designed for studying the stimulation of human TLR9 by monitoring the activation of NF-κB. A SEAP (secreted embryonic alkaline phosphatase) reporter gene was placed under the control of the IFN-β minimal promoter fused to five NF-κB and AP-1-binding sites. The SEAP was induced by activating NF-κB and AP-1 via stimulating HEK-Blue hTLR9 cells with TLR9 ligands. Therefore the reporter expression was declined by TLR9 antagonist under the stimulation of a ligand, such as ODN2006 (Cat. #: tlrl-2006-1, Invivogen, San Diego, Calif., USA), for incubation of 20 hrs. The cell culture supernatant SEAP reporter activity was determined using QUANTI-Blue™ kit (Cat. #: rep-qb1, Invivogen, San Diego, Calif., USA) at a wavelength of 640 nm, a detection medium that turns purple or blue in the presence of alkaline phosphatase.
HEK293-Blue-hTLR9 cells were incubated at a density of 250,000-450,000 cells/mL in a volume of 170 μL in a 96-well plate in Dulbecco's Modified Eagle's medium (DMEM) containing 4.5 g/L glucose, 50 U/mL penicillin, […], […], 2 mM L-glutamine, 10% (v/v) heat-inactivated fetal bovine serum with addition of 20 sL test compound in a serial dilution in the presence of final DMSO at 1% and 10 sL of 20 uM ODN2006 in above DMEM, perform incubation under 37° C. in a CO2 incubator for 20 hrs. Then 20 sL of the supernatant from each well was incubated with 180 μL Quanti-blue substrate solution at 37° C. for 2 hrs and the absorbance was read at 620-655 nm using a spectrophotometer. The signalling pathway that TLR9 activation leads to downstream NF-x3B activation has been widely accepted, and therefore similar reporter assay was modified for evaluating TLR9 antagonist.

Going from `O=C(NC1CC2COCC(C1)N2)C1CN(c2ccc(C(F)(F)F)c3nccnc23)CC12CC2` (stereo not shown) [Example 6, N-(3-oxa-9-azabicyclo[3.3.1]nonan-7-yl)-5-[8-(trifluoromethyl)quinoxalin-5-yl]-5-azaspiro[2.4]heptane-7-carboxamide] to `O=C(NC1CC2CCC(C1)N2)C1CN(c2ccc(C(F)(F)F)c3nccnc23)CC12CC2` (stereo not shown) [Example 23, N-(8-azabicyclo[3.2.1]octan-3-yl)-5-[8-(trifluoromethyl)quinoxalin-5-yl]-5-azaspiro[2.4]heptane-7-carboxamide], the IC50 rises from 1.4 µM to 10.4 µM (7.4-fold).

Going from `O=C(NC1C2CCCC1CNC2)C1CN(c2ccc(C(F)(F)F)c3nccnc23)CC12CC2` (stereo not shown) [Example 8, N-(3-azabicyclo[3.3.1]nonan-9-yl)-5-[8-(trifluoromethyl)quinoxalin-5-yl]-5-azaspiro[2.4]heptane-7-carboxamide] to `O=C(NC1C2CCC1CNC2)C1CN(c2ccc(C(F)(F)F)c3nccnc23)CC12CC2` (stereo not shown) [Example 12, N-(3-azabicyclo[3.2.1]octan-8-yl)-5-[8-(trifluoromethyl)quinoxalin-5-yl]-5-azaspiro[2.4]heptane-7-carboxamide], the IC50 falls from 8.3 µM to 1 µM (8.3-fold). The second is the more potent here.

`O=C(NC1CC2CCCC(C1)N2)C1CN(c2ccc(C(F)(F)F)c3nccnc23)CC12CC2` (stereo not shown) [Example 10, N-(9-azabicyclo[3.3.1]nonan-3-yl)-5-[8-(trifluoromethyl)quinoxalin-5-yl]-5-azaspiro[2.4]heptane-7-carboxamide] and `NC1CC(NC(=O)C2CN(c3ccc(C(F)(F)F)c4nccnc34)CC23CC3)C1` (stereo not shown) [Example 38, N-(3-Aminocyclobutyl)-5-[8-(trifluoromethyl)quinoxalin-5-yl]-5-azaspiro[2.4]heptane-7-carboxamide] are within 1.5-fold of each other in IC50: 9.5 µM for the first, 12.3 µM for the second.

Going from `CN1CCC(NC(=O)C2CN(c3ccc(C(F)(F)F)c4nccnc34)CC23CC3)CC1` (stereo not shown) [Example 11, N-(1-methyl-4-piperidyl)-5-[8-(trifluoromethyl)quinoxalin-5-yl]-5-azaspiro[2.4]heptane-7-carboxamide] to `N[C@H]1CC[C@H](NC(=O)C2CN(c3ccc(C(F)(F)F)c4nccnc34)CC23CC3)CC1` (stereo partly shown) [Example 24, N-(4-aminocyclohexyl)-5-[8-(trifluoromethyl)quinoxalin-5-yl]-5-azaspiro[2.4]heptane-7-carboxamide], the IC50 rises from 1 µM to 27.8 µM (28-fold). The first is the more potent here.

Going from `N#Cc1ccc(N2CC(C(=O)NCC3CNCCO3)C3(CC3)C2)c2nccnc12` (stereo not shown) [Example 13, 5-(8-Cyanoquinoxalin-5-yl)-N-(morpholin-2-ylmethyl)-5-azaspiro[2.4]heptane-7-carboxamide] to `NC1CC(CNC(=O)C2CN(c3ccc(C(F)(F)F)c4nccnc34)CC23CC3)C1` (stereo not shown) [Example 31, N-[(3-aminocyclobutyl)methyl]-5-[8-(trifluoromethyl)quinoxalin-5-yl]-5-azaspiro[2.4]heptane-7-carboxamide], the IC50 rises from 2.1 µM to 9.3 µM (4.4-fold). The first is the more potent here.

First: O=C(NC1CC2CNCC(C2)C1)C1CN(c2ccc(C(F)(F)F)c3nccnc23)CC12CC2 (stereo not shown) [Example 15, N-(3-azabicyclo[3.3.1]nonan-7-yl)-5-[8-(trifluoromethyl)quinoxalin-5-yl]-5-azaspiro[2.4]heptane-7-carboxamide]
Second: O=C(NC1CC2CNCC2C1)C1CN(c2ccc(C(F)(F)F)c3nccnc23)CC12CC2 (stereo not shown) [Example 21, N-(1,2,3,3a,4,5,6,6a-octahydrocyclopenta[c]pyrrol-5-yl)-5-[8-(trifluoromethyl)quinoxalin-5-yl]-5-azaspiro[2.4]heptane-7-carboxamide]
The IC50 of the first is 1.9-fold lower: 7.3 µM for the first, 14 µM for the second.

`C[C@H]1CN(c2ccc(C#N)c3ncccc23)C[C@@H]1C(=O)NC1CCN(C)CC1` [Example 16, (3R,4R)-1-(8-cyano-5-quinolyl)-4-methyl-N-(1-methyl-4-piperidyl)pyrrolidine-3-carboxamide] and `C[C@H]1CN(c2ccc([N+](=O)[O-])c3ncccc23)C[C@@H]1C(=O)NC1CCN(C)CC1` [Example 27, (3R,4R)-4-Methyl-N-(1-methyl-4-piperidyl)-1-(8-nitro-5-quinolyl)pyrrolidine-3-carboxamide] are within 1.5-fold of each other in IC50: 4.6 µM for the first, 4.5 µM for the second.

Compared with `CN1CCC(NC(=O)C2CN(c3ccc(C#N)c4ncccc34)CC2C(F)(F)F)CC1` (stereo not shown) [Example 18, 1-(8-Cyano-5-quinolyl)-N-(1-methyl-4-piperidyl)-4-(trifluoromethyl)pyrrolidine-3-carboxamide], `N#Cc1ccc(N2C[C@H](C(=O)NC3CCN(C4CCNCC4)CC3)[C@@H](C(F)(F)F)C2)c2nccnc12` [Example 35, (3R,4R)-1-(8-Cyanoquinoxalin-5-yl)-N-[1-(4-piperidyl)-4-piperidyl]-4-(trifluoromethyl)pyrrolidine-3-carboxamide] is 2.5-fold lower in IC50: 10.8 µM for the first, 4.3 µM for the second. The second is the more potent here.

Going from `CN1CC(NC(=O)C2CN(c3ccc(C(F)(F)F)c4nccnc34)CC23CC3)C2(CC2)C1` (stereo not shown) [Example 20, N-(5-methyl-5-azaspiro[2.4]heptan-7-yl)-5-[8-(trifluoromethyl)quinoxalin-5-yl]-5-azaspiro[2.4]heptane-7-carboxamide] to `NC1CC2(C1)CC(NC(=O)C1CN(c3ccc(C(F)(F)F)c4nccnc34)CC13CC3)C2` (stereo not shown) [Example 22, N-(6-aminospiro[3.3]heptan-2-yl)-5-[8-(trifluoromethyl)quinoxalin-5-yl]-5-azaspiro[2.4]heptane-7-carboxamide], the IC50 falls from 13.1 µM to 8.2 µM (1.6-fold). The second is the more potent here.

First: C[C@@H]1CN(c2ccc(C(F)(F)F)c3nccnc23)C[C@H]1C(=O)NC1CCN(C)CC1 [Example 25, (3S,4S)-4-Methyl-N-(1-methyl-4-piperidyl)-1-[8-(trifluoromethyl)quinoxalin-5-yl]pyrrolidine-3-carboxamide]
Second: Cc1ccc(N2C[C@H](C(=O)NC3CCN(C)CC3)[C@@H](C)C2)c2nccnc12 [Example 33, (3R,4R)-4-Methyl-N-(1-methyl-4-piperidyl)-1-(8-methylquinoxalin-5-yl)pyrrolidine-3-carboxamide]
The IC50 of the first is 2.2-fold lower: 13.9 µM for the first, 30.2 µM for the second.

First: CN(C)CC1CC(NC(=O)C2CN(c3ccc(C(F)(F)F)c4nccnc34)CC23CC3)C1 (stereo not shown) [Example 26, N-[3-[(dimethylamino)methyl]cyclobutyl]-5-[8-(trifluoromethyl)quinoxalin-5-yl]-5-azaspiro[2.4]heptane-7-carboxamide]
Second: N[C@H]1CC[C@@H](NC(=O)C2CN(c3ccc(C(F)(F)F)c4nccnc34)CC23CC3)CC1 (stereo partly shown) [Example 39, N-(4-Aminocyclohexyl)-5-[8-(trifluoromethyl)quinoxalin-5-yl]-5-azaspiro[2.4]heptane-7-carboxamide]
The IC50 of the first is 1.8-fold lower: 11.5 µM for the first, 21.1 µM for the second. The first is the more potent here.

`O=C(NC1CC2(CCNCC2)C1)C1CN(c2ccc(C(F)(F)F)c3nccnc23)CC12CC2` (stereo not shown) [Example 34, N-(7-azaspiro[3.5]nonan-2-yl)-5-[8-(trifluoromethyl)quinoxalin-5-yl]-5-azaspiro[2.4]heptane-7-carboxamide] and `N[C@@H]1C[C@H](NC(=O)C2CN(c3ccc(C(F)(F)F)c4nccnc34)CC23CC3)[C@@H]2C[C@@H]21` (stereo partly drawn) [Example 36, N-[(1R,2S,4R,5S)-4-amino-2-bicyclo[3.1.0]hexanyl]-5-[8-(trifluoromethyl)quinoxalin-5-yl]-5-azaspiro[2.4]heptane-7-carboxamide] are within 1.5-fold of each other in IC50: 16.7 µM for the first, 21.8 µM for the second.

`C[C@H]1CN(c2ccc(C#N)n3nccc23)C[C@@H]1C(=O)NC1CCN(C)CC1` [Example 44, (3R,4R)-1-(7-cyanopyrazolo[1,5-a]pyridin-4-yl)-4-methyl-N-(1-methyl-4 piperidyl)pyrrolidine-3-carboxamide] gave an IC50 of 9.1 µM.

Source: patent US20210323977A1, “PYRROLIDINYL AMIDE COMPOUNDS FOR THE TREATMENT OF AUTOIMMUNE DISEASE” (Hoffmann-La Roche Inc., priority 2018, published 2021)
